Test results from patent publication US10092568B2, “CBP/Catenin antagonists for enhancing asymmetric division of somatic stem cells” (University of Southern California, priority 2010, dated 2018).

Columns and labels:
Colorectal cancer cells = assay: ChIP and message of Wnt/beta-catenin target genes in colorectal cancer cells; format: cell-based
Protocol: The effects of CBP/catenin antagonism on Wnt target genes are highly promoter specific. Colorectal cancer cells were treated with ICG-001, thereby disrupting the CBP/catenin interaction, and then examined for coactivator occupancy at the promoter regions of several Wnt/beta-catenin regulated target genes using a Chromatin Immuno-precipitation Assay (ChIP), a technique that allows one to determine what proteins are associated with a particular promoter. […] Furthermore, there are other Wnt/catenin-regulated genes that selectively utilize p300 for transcriptional coactivation. An interesting example of this differential coactivator usage concerns the expression of the gene EphB2, a known Wnt/TCF/beta-catenin target gene. As almost 90% of colon cancers have high aberrant Wnt/TCF/beta-catenin activation, it would follow that EpHB2 expression would be increased with colon cancer disease progression. This, however, is not the case as EphB2 expression is generally lost in late stage colorectal cancers (34). Furthermore, disruption of EphB2 in the Min mouse, which carries a defective APC tumor suppressor gene, results in highly invasive carcinomas as opposed to the normal adenomas.

mice = assay: Topical treatment of mothers throughout pregnancy, offspring development; format: in vivo, mouse; settings: mothers treated topically, 0.5M, conception to birth
Source text: Acute Promyelocytic Leukemia (APL) is unique among myeloid leukemias due to its sensitivity to all-trans retinoic acid (ATRA), a derivative of vitamin A. Treatment with ATRA dissociates the NCOR-HDACL complex from RAR and allows DNA transcription and differentiation of the immature leukemic promyelocytes into mature granulocytes by targeting the oncogenic transcription factor and its aberrant action. […] A large number of scientific studies have also investigated a possible role for vitamin D in cancer prevention, including colon, prostate, breast, pancreatic and skin cancer. […] However, there are also reports of synergistic effects on the activation of gene expression by ATRA and Wnt for example (47). […] This is the same region of these coactivator proteins (i.e., CBP and p300) that partners with catenin (both beta and gamma) and the CBP/catenin antagonists (e.g., ICG-001) also bind to this region. These nuclear receptor ligands have many of the same differentiating effects on stem cell populations that applicant has observed with specific CBP/catenin antagonists. Although, both Vitamin A and D are required during development and have many beneficial health effects in adulthood, both are teratogenic at high levels. […]

## O=C1[C@H](Cc2ccc(O)cc2)N2C(=O)CCN(C(=O)NCc3ccccc3)[C@H]2CN1Cc1cccc2ccccc12 [ICG-001]
Colorectal cancer cells; colon cancer cells
  expression of EphB2: increasing the expression
Colorectal cancer cells; colorectal cancer cells
  c-myc message: slight increase in message
  cyclin D1 message: decrease in message
  survivin message: decreased message
mice
  fertility of offspring: could breed a second generation
  weight and size of offspring at 6 weeks of age: normal weight and size
